In brackets after ≈: the same amount, converted by molar mass. Activity calls are given as the source filed them. The calls are words filed in the database; no cut-off is given here. Where a SMILES comes first, the peptide text is derived from it. Bridges are numbered along the chain shown (N, C = ends). [ ]: non-standard residue; d: D form. The star is where a group is joined. X1 = CC[C@H](C)CCCCC(=O)*; Dab = NCC[C@H](N)C(=O)O
Experiments:
Bacillus subtilis = test: Antibacterial activity against Bacillus subtilis ATCC 23857 after 18 hrs by CLSI based broth microdilution method; type: functional; settings: ATCC 23857, 18 h
Klebsiella pneumoniae = test: Antibacterial activity against Klebsiella pneumoniae ATCC 700603 after 18 hrs by CLSI based broth microdilution method; type: functional
Staphylococcus aureus [1] = test: Antibacterial activity against Staphylococcus aureus ATCC 25923 after 18 hrs by CLSI based broth microdilution method; type: functional; settings: ATCC 25923, 18 h
Escherichia coli [2] = test: Antibacterial activity against Escherichia coli ATCC 25922 after 18 hrs by CLSI based broth microdilution method; type: functional
Staphylococcus aureus [3] = test: Antibacterial activity against methicillin-resistant Staphylococcus aureus 936 after 18 hrs by CLSI based broth microdilution method; type: functional; settings: Staphylococcus aureus, 936, 18 h
Pseudomonas aeruginosa = test: Antibacterial activity against Pseudomonas aeruginosa ATCC 27853 after 18 hrs by CLSI based broth microdilution method; type: functional
Escherichia coli [4] = test: Antibacterial activity against Escherichia coli ATCC 43837 after 18 hrs by CLSI based broth microdilution method; type: functional
Staphylococcus aureus [5] = test: Ratio of antibacterial activity against Staphylococcus aureus ATCC 25923 in presence of FeCl3 to antibacterial activity against Staphylococcus aureus ATCC 25923; type: functional
Escherichia coli [6] = test: Induction of membrane disruption in Escherichia coli ATCC 25922 assessed as fracture in membrane at 4 times of MIC after 2 hrs by SEM analysis; type: functional, organism-based
Escherichia coli [7] = test: Antibacterial activity against Escherichia coli ATCC 25922 after 18 hrs in presence of MgCl2 by CLSI based broth microdilution method (reference value: 4 microM); type: functional; settings: ATCC 25922, 18 h
Staphylococcus aureus [8] = test: Ratio of antibacterial activity against Staphylococcus aureus ATCC 25923 in presence of KCl to antibacterial activity against Staphylococcus aureus ATCC 25923; type: functional
Escherichia coli [9] = test: Induction of membrane disruption in Escherichia coli ATCC 25922 assessed as degeneration in membrane at 4 times of MIC after 2 hrs by SEM analysis; type: functional, organism-based
Staphylococcus aureus [10] = test: Antibacterial activity against Staphylococcus aureus ATCC 25923 after 18 hrs in presence of KCl by CLSI based broth microdilution method (reference value: 16 microM); type: functional; settings: ATCC 25923, 18 h
Staphylococcus aureus [11] = test: Antibacterial activity against Staphylococcus aureus ATCC 25923 after 18 hrs in presence of MgCl2 by CLSI based broth microdilution method (reference value: 16 microM); type: functional; settings: ATCC 25923, 18 h
Escherichia coli [12] = test: Induction of ROS generation in Escherichia coli ATCC 25922; type: functional, organism-based
Escherichia coli [13] = test: Induction of membrane disruption in Escherichia coli ATCC 25922 assessed as rough membrane surface at 4 times of MIC after 2 hrs by SEM analysis; type: functional, organism-based
Staphylococcus aureus [14] = test: Ratio of antibacterial activity against Staphylococcus aureus ATCC 25923 in presence of NaCl to antibacterial activity against Staphylococcus aureus ATCC 25923; type: functional
Escherichia coli [15] = test: Ratio of antibacterial activity against Escherichia coli ATCC 25922 in presence of MgCl2 to antibacterial activity against Escherichia coli ATCC 25922; type: functional
Staphylococcus aureus [16] = test: Antibiofilm activity against Staphylococcus aureus ATCC 25923 at 1 to 2 times of MIC after 24 hrs by crystal violet staining based assay; type: functional, organism-based
Escherichia coli [17] = test: Ratio of antibacterial activity against Escherichia coli ATCC 25922 in presence of NaCl to antibacterial activity against Escherichia coli ATCC 25922; type: functional
Staphylococcus aureus [18] = test: Antibacterial activity against Staphylococcus aureus ATCC 25923 after 18 hrs in presence of NaCl by CLSI based broth microdilution method (reference value: 16 microM); type: functional; settings: ATCC 25923, 18 h
Escherichia coli [19] = test: Disruption of membrane integrity in Escherichia coli ATCC 25922 assessed as membrane damage by measuring PI fluorescence at 4 times of MIC incubated for 1 hr by PI dye based flow cytometric analysis (reference value: 1.35%); type: functional
Escherichia coli [20] = test: Ratio of antibacterial activity against Escherichia coli ATCC 25922 in presence of KCl to antibacterial activity against Escherichia coli ATCC 25922; type: functional
Escherichia coli [21] = test: Induction of membrane disruption in Escherichia coli ATCC 25922 assessed as corrugated membrane surface at 4 times of MIC after 2 hrs by SEM analysis; type: functional, organism-based
DNA = test: Binding affinity to Escherichia coli ATCC 25922 genomic DNA at 4 x MIC after 30 mins by agarose gel electrophoresis; type: nucleic-acid assay
Escherichia coli [22] = test: Antibacterial activity against Escherichia coli ATCC 25922 after 18 hrs in presence of FeCl3 by CLSI based broth microdilution method (reference value: 4 microM); type: functional; settings: ATCC 25922, 18 h
Escherichia coli [23] = test: Ratio of antibacterial activity against Escherichia coli ATCC 25922 in presence of FeCl3 to antibacterial activity against Escherichia coli ATCC 25922; type: functional
Escherichia coli [24] = test: Disruption of membrane integrity in Escherichia coli ATCC 25922 assessed as membrane damage by measuring PI fluorescence at 2 times of MIC incubated for 1 hr by PI dye based flow cytometric analysis (reference value: 1.35%); type: functional
Escherichia coli [25] = test: Antibacterial activity against Escherichia coli ATCC 25922 after 18 hrs in presence of NaCl by CLSI based broth microdilution method (reference value: 4 microM); type: functional; settings: ATCC 25922, 18 h
Staphylococcus aureus [26] = test: Ratio of antibacterial activity against Staphylococcus aureus ATCC 25923 in presence of MgCl2 to antibacterial activity against Staphylococcus aureus ATCC 25923; type: functional
Staphylococcus aureus [27] = test: Antibacterial activity against Staphylococcus aureus ATCC 25923 after 18 hrs in presence of FeCl3 by CLSI based broth microdilution method (reference value: 16 microM); type: functional; settings: ATCC 25923, 18 h
Escherichia coli [28] = test: Antibacterial activity against Escherichia coli ATCC 25922 after 18 hrs in presence of KCl by CLSI based broth microdilution method (reference value: 4 microM); type: functional; settings: ATCC 25922, 18 h
[29] = Klebsiella pneumoniae, 700603, 18 h

In the case of `CCCCCC(=O)NCC(=O)N[C@@H](CC(C)C)C(=O)N[C@@H](CC(C)C)C(=O)N[C@H](CCCCN)C(=O)N[C@@H](CCCNC(=N)N)C(=O)N[C@H](C(=O)N[C@H](CCCCN)C(=O)N[C@H](C(=O)N[C@@H](CC(C)C)C(=O)N[C@@H](CC(C)C)C(N)=O)[C@@H](C)O)[C@@H](C)CC`, the MIC (Bacillus subtilis) is reported as 16 µM (≈ 20 µg/mL), the MIC (Klebsiella pneumoniae; [29]) is reported as over 128 µM and the MIC (Staphylococcus aureus [1]) is reported as over 128 µM. For the same compound, the MIC (Escherichia coli [2]; ATCC 25922, 18 h) was 128 µM (≈ 160 µg/mL), the MIC (Staphylococcus aureus [3]) was over 128 µM and the MIC (Pseudomonas aeruginosa; ATCC 27853, 18 h) was 32 µM (≈ 40.1 µg/mL). It also gave an MIC (Escherichia coli [4]; ATCC 43837, 18 h) of over 128 µM.
`CC[C@H](C)CCCCC(=O)N[C@@H](CCN)C(=O)N[C@H](C(=O)N[C@@H](CCN)C(=O)N[C@H]1CCNC(=O)[C@H]([C@@H](C)O)NC(=O)[C@H](CCN)NC(=O)[C@H](CCN)NC(=O)[C@H](CC(C)C)NC(=O)[C@@H](Cc2ccccc2)NC(=O)[C@H](CCN)NC1=O)[C@@H](C)O` (X1-[Dab]T[Dab][Dab][Dab][dF]L[Dab][Dab]T; lactam 4-C) was tested, and the Ratio (Staphylococcus aureus [5]) was 2 - 4, the Activity (Escherichia coli [6]) was “Active” and the MIC (Escherichia coli [7]) was 8 µM. For the same compound, the Ratio (Staphylococcus aureus [8]) was 2 - 4, the Activity (Escherichia coli [9]) was “Active” and the MIC (Staphylococcus aureus [10]) was 16 µM. For the same compound, the MIC (Staphylococcus aureus [11]) was 32 µM, the Activity (Escherichia coli [12]) was “inactive” and the Activity (Escherichia coli [13]) was “Active”. For the same compound, the Ratio (Staphylococcus aureus [14]) was 2 - 4, the Ratio (Escherichia coli [15]) was 2 - 4 and the MIC (Bacillus subtilis) was 8 µM (≈ 9.63 µg/mL). For the same compound, the inhibition (Staphylococcus aureus [16]) was “Active”, the MIC (Klebsiella pneumoniae; [29]) was 8 µM (≈ 9.63 µg/mL) and the Ratio (Escherichia coli [17]) was 2 - 4. It also gave an MIC (Staphylococcus aureus [1]) of 16 µM (≈ 19.3 µg/mL), an MIC (Staphylococcus aureus [18]) of 64 µM and an MIC (Escherichia coli [2]; ATCC 25922, 18 h) of 4 µM (≈ 4.81 µg/mL). For the same compound, the Activity (Escherichia coli [19]) was 8.49%, the Ratio (Escherichia coli [20]) was 2 - 4 and the Activity (Escherichia coli [21]) was “Active”. The Activity (DNA) was “inactive”, the MIC (Escherichia coli [22]) was 4 µM and the Ratio (Escherichia coli [23]) was 2 - 4. It also gave an Activity (Escherichia coli [24]) of 3.47%, an MIC (Staphylococcus aureus [3]) of 16 µM (≈ 19.3 µg/mL) and an MIC (Escherichia coli [25]) of 16 µM. The Ratio (Staphylococcus aureus [26]) was 2 - 4, the MIC (Staphylococcus aureus [27]) was 16 µM and the MIC (Escherichia coli [28]) was 16 µM. It also gave an MIC (Pseudomonas aeruginosa; ATCC 27853, 18 h) of 2 µM (≈ 2.41 µg/mL) and an MIC (Escherichia coli [4]; ATCC 43837, 18 h) of 2 µM (≈ 2.41 µg/mL).
`CC1(C)S[C@@H]2[C@H](NC(=O)Cc3ccccc3)C(=O)N2[C@H]1C(=O)O` [PENICILLIN G] was tested, and the MIC (Bacillus subtilis) was under 1 µM, the MIC (Klebsiella pneumoniae; [29]) was over 128 µM and the MIC (Staphylococcus aureus [1]) was under 1 µM. The MIC (Escherichia coli [2]; ATCC 25922, 18 h) was 64 µM (≈ 21.4 µg/mL), the MIC (Staphylococcus aureus [3]) was 32 µM (≈ 10.7 µg/mL) and the MIC (Pseudomonas aeruginosa; ATCC 27853, 18 h) was over 128 µM. It also gave an MIC (Escherichia coli [4]; ATCC 43837, 18 h) of 8 µM (≈ 2.68 µg/mL).
In the case of `CCCC(=O)NCC(=O)N[C@@H](CC(C)C)C(=O)N[C@@H](CC(C)C)C(=O)N[C@H](CCCCN)C(=O)N[C@@H](CCCNC(=N)N)C(=O)N[C@H](C(=O)N[C@H](CCCCN)C(=O)N[C@H](C(=O)N[C@@H](CC(C)C)C(=O)N[C@@H](CC(C)C)C(N)=O)[C@@H](C)O)[C@@H](C)CC`, the MIC (Bacillus subtilis) is reported as 128 µM (≈ 157 µg/mL), the MIC (Klebsiella pneumoniae; [29]) is reported as over 128 µM and the MIC (Staphylococcus aureus [1]) is reported as over 128 µM. For the same compound, the MIC (Escherichia coli [2]; ATCC 25922, 18 h) was over 128 µM, the MIC (Staphylococcus aureus [3]) was over 128 µM and the MIC (Pseudomonas aeruginosa; ATCC 27853, 18 h) was 128 µM (≈ 157 µg/mL). It also gave an MIC (Escherichia coli [4]; ATCC 43837, 18 h) of over 128 µM.
`CC[C@H](C)[C@H](NC(=O)[C@H](CCCNC(=N)N)NC(=O)[C@@H](CCCCN)NC(=O)[C@H](CC(C)C)NC(=O)[C@H](CC(C)C)NC(=O)CN)C(=O)N[C@H](CCCCN)C(=O)N[C@H](C(=O)N[C@@H](CC(C)C)C(=O)N[C@@H](CC(C)C)C(N)=O)[C@@H](C)O` (H-GLL[dK]RI[dK]TLL-NH2) was tested, and the MIC (Bacillus subtilis) was 64 µM (≈ 73.8 µg/mL), the MIC (Klebsiella pneumoniae; [29]) was over 128 µM and the MIC (Staphylococcus aureus [1]) was over 128 µM. For the same compound, the MIC (Escherichia coli [2]; ATCC 25922, 18 h) was over 128 µM, the MIC (Staphylococcus aureus [3]) was over 128 µM and the MIC (Pseudomonas aeruginosa; ATCC 27853, 18 h) was 64 µM (≈ 73.8 µg/mL). For the same compound, the MIC (Escherichia coli [4]; ATCC 43837, 18 h) was over 128 µM.
In the case of `CN[C@H](CC(C)C)C(=O)N[C@H]1C(=O)N[C@@H](CC(N)=O)C(=O)N[C@H]2C(=O)N[C@H]3C(=O)N[C@H](C(=O)N[C@H](C(=O)O)c4cc(O)cc(O)c4-c4cc3ccc4O)[C@H](O)c3ccc(c(Cl)c3)Oc3cc2cc(c3O[C@@H]2O[C@H](CO)[C@@H](O)[C@H](O)[C@H]2O[C@H]2C[C@](C)(N)[C@H](O)[C@H](C)O2)Oc2ccc(cc2Cl)[C@H]1O` [VANCOMYCIN], the MIC (Bacillus subtilis) is reported as under 1 µM, the MIC (Klebsiella pneumoniae) is reported as “inactive” and the MIC (Staphylococcus aureus [1]) is reported as under 1 µM. The MIC (Escherichia coli [2]) was “inactive”, the MIC (Staphylococcus aureus [3]) was under 1 µM and the MIC (Pseudomonas aeruginosa) was “inactive”. For the same compound, the MIC (Escherichia coli [4]) was “inactive”.
